Experimental data taken from article PMC9339481 (Nature chemical biology, 2022).
Where two headings read alike, the source gives them in different places. Blank lines part the entries; values can stand above or below the compound they belong to.

Legend:
[1] = test system: class IIa HDACs; test: chemoproteomic competition pulldown assay, class IIa HDACs; type: binding, human
[2] = molecular target: T1, HDAC8 (Homo sapiens, UniProt Q9BY41); test: HDAC-Glo enzyme activity assay; type: biochemical
T1 sequence (Q9BY41 1-377): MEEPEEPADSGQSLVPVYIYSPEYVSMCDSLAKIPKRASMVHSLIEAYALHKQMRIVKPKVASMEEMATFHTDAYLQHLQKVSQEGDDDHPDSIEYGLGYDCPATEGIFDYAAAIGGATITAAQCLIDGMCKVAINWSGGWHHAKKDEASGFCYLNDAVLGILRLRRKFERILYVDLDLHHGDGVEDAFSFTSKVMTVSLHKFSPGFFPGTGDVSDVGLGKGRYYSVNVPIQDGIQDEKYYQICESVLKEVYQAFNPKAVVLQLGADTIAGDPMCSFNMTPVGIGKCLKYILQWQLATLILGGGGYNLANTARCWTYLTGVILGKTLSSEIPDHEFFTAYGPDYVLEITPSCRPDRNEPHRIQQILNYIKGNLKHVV

[3] = molecular target: T2, recombinant MBLAC2 (Homo sapiens, UniProt Q68D91); test: Palmitoyl-CoA hydrolysis assay; type: biochemical; conditions: for EC50: assay threshold 10 nM
T2 sequence (Q68D91 1-279): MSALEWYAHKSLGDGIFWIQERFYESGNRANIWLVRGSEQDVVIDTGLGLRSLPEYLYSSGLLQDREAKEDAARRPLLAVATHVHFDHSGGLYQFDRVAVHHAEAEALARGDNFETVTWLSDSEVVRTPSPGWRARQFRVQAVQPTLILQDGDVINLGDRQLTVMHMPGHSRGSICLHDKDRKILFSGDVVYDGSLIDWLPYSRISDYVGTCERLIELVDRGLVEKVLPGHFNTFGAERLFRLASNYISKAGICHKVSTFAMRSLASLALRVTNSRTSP

[4] = test system: HDAC1 and HDAC2; test: binding kinetics pulldown experiment; design: species or system human; conditions: 4 °C, 30 μM
[5] = test system: HDAC6; conditions: reported values; cited from earlier work
[6] = molecular target: HDACs or other metalloproteins; test: chemoproteomic competition pulldown assay, whole target panel; conditions: for affinities (Kd^app) in chemoproteomic assay: doses up to 3000 μM
[7] = test system: CoREST complex subunits RCOR3 and RCOR1; test: HDAC complex selectivity from competition pulldown; type: binding, human
[8] = molecular target: HDACs 1–3; test: chemoproteomic competition pulldown assay, HDACs 1–3; type: binding, human
[9] = test system: SW620 cells, HDAC6 substrate alpha-tubulin; test: Western blot against acetylated alpha-Tubulin; type: cell-based, human; conditions: 6 h, vs DMSO control
[10] = EC50 of MBLAC2 hydrolase activity inhibition

SMILES: Cn1c(/C=C/C(=O)NO)ccc1/C=C/C(=O)c1cccc(F)c1 [MC1568]
- class IIa target engagement [1]: no class IIa target engagement at all

- activity against HDAC8 [2]: very low activity
SMILES: O=C(CCCCCCC(=O)Nc1ccccc1)NO [Vorinostat]

- MBLAC2 enzyme activity, single dose screen ([3]; 300 nM drug, 30 nM MBLAC2): little if any effect on enzyme activity
- effect on MBLAC2 activity ([3]; at a 1,000-fold higher concentration): did not affect MBLAC2 activity
SMILES: Nc1cc(F)ccc1NC(=O)c1ccc(CNC(=O)/C=C/c2cccnc2)cc1 [Tucidinostat]

- time until target HDACs maximally competed [4]: more than 2 h
SMILES: Nc1ccccc1NC(=O)c1ccc(CNC(=O)OCc2cccnc2)cc1 [Entinostat]

SMILES: CCCCN(Cc1ccc(C(=O)NO)cc1)C(=O)Nc1ccccc1 [Nexturastat A]
- pEC50 HDAC6 [5]: 8.3

- affinities (Kd^app) in chemoproteomic assay [6]: three-digit micromolar
SMILES: O=C(O)CCCc1ccccc1 [Phenylbutanoic Acid]

- lower EC50 value of RCOR3 compared to RCOR1 and other CoREST members [7]: > 10 fold
SMILES: O=C(/C=C/c1ccc(CN(CCO)CCc2c[nH]c3ccccc23)cc1)NO [Dacinostat]

- lower EC50 value of RCOR3 compared to RCOR1 and other CoREST members [7]: > 10 fold
SMILES: C/C=C1\NC(=O)[C@H]2CSSCC/C=C/[C@H](CC(=O)N[C@H](C(C)C)C(=O)N2)OC(=O)[C@H](C(C)C)NC1=O [Romidepsin]

- EC50 [3, 10]: < 10 nM
SMILES: CCCCc1nc2cc(/C=C/C(=O)NO)ccc2n1CCN(CC)CC [Pracinostat]

- HDAC binding in chemoproteomic assay [6]: did not bind HDACs
SMILES: CCCCOc1ccc(CC(=O)NO)cc1 [Bufexamac]

- EC50 [3, 10]: < 10 nM
SMILES: CN(C)Cc1c(C(=O)NCCOc2ccc(C(=O)NO)cc2)oc2ccccc12 [Abexinostat]

- EC50 ([3]; read-out: EC50 of MBLAC2 hydrolase activity inhibition): < 10 nM
SMILES: CC(C)[C@H](C(=O)Nc1ccc(C(=O)NO)cc1)c1ccccc1 [AR-42]

SMILES: Cc1cc(C)cc(C(=O)NOCCCCCC(=O)NO)c1 [LMK235]
- class IIa target engagement [1]: no class IIa target engagement at all

- affinities (Kd^app) in chemoproteomic assay [6]: three-digit micromolar
SMILES: CCCC(CCC)C(=O)O [Valproic Acid]

- lower EC50 value of RCOR3 compared to RCOR1 and other CoREST members [7]: > 10 fold
SMILES: CN(C)c1ccc(C(=O)NCCCCCCC(=O)NO)cc1 [M344]

- HDAC binding in chemoproteomic assay [6]: did not bind HDACs
SMILES: Cc1cc(Cl)ccc1OCCCC(=O)NO [Droxinostat]

- pKd^app range for HDACs 1–3 [8]: 4.9–6.0
SMILES: O=C(CCCCCCNC(=O)c1cnc(N(c2ccccc2)c2ccccc2)nc1)NO [Ricolinostat]

SMILES: O=C(NO)c1cnc(NC2(c3ccccc3)CC2)nc1 [ACY-738]
- acetylation of alpha-Tubulin Lys40 [9]: significant overacetylation
